Source: patent US20260250320A1, “LIPIDATED PEPTIDE INHIBITORS OF INTERLEUKIN-23 RECEPTOR” (Janssen Pharmaceutica NV, priority 2023, published 2026)
*1 amine or outer side, *2 acyl side, *3 side chain or, on linkers, in order; H or OH if unused. Where a SMILES comes first, the peptide text is derived from it. Bridges are numbered along the chain shown (N, C = ends). Side-chain parts run from the residue outwards. [ ]: non-standard residue; d: D form. The star is where a group is joined. X8 = CC(=O)[C@H](CCCCNC(=O)CC[C@H](NC(=O)CCCCCCCCCCCCCCCCC(=O)O)C(=O)O)N(C)*; Me3N+CH2CH2(OCH2CH2)4CO = C[N+](C)(C)CCOCCOCCOCCOCCC(=O)*; Me3N+(CH2)2O(CH2)2O(CH2)2CO = C[N+](C)(C)CCOCCOCCC(=O)*; PEG12 = NCCOCCOCCOCCOCCOCCOCCOCCOCCOCCOCCOCCOCCC(=O)O; CH2CH2OCH2CH2OCH2CH2NMe3+ = C[N+](C)(C)CCOCCOCC*; Trp(7-Me) = Cc1cccc2c(C[C@H](N)C(=O)O)c[nH]c12; C20 diacid = O=C(O)CCCCCCCCCCCCCCCCCCC(=O)*; C18 diacid = O=C(O)CCCCCCCCCCCCCCCCC(=O)*; X6 = CN(CC[C@H](N[*:1])C(=O)[*:2])[*:3]; γGlu = O=C(O)[C@H](CCC(=O)[*:2])N[*:1]; 2Nal = N[C@@H](Cc1ccc2ccccc2c1)C(=O)O; AEF = NCCOc1ccc(C[C@H](N)C(=O)O)cc1; PEG6 = NCCOCCOCCOCCOCCOCCOCCC(=O)O; X7 = C[N+](C)(C)CCOCCOCCOCCOC(=O)*; 3Pal = N[C@@H](Cc1cccnc1)C(=O)O; Lys(Me) = CNCCCC[C@H](N)C(=O)O; NMeK = CN[C@@H](CCCCN)C(=O)O; Pen = CC(C)(S)[C@H](N)C(=O)O; Thp = NC1(C(=O)O)CCOCC1; AEEA = NCCOCCOCC(=O)O; Sar = CNCC(=O)O

How the values were obtained:
[1] = system: IL-23-stimulated phosphorylated STAT3 in peripheral blood mononuclear cells (PBMCs); assay: PBMC pSTAT3 Assay; type: cell-based; conditions: PBMCs from healthy donors; 30 min preincubation with peptide; IL-23 5 ng/mL for 30 min; phospho-STAT3 by MSD
Method in brief: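 Phospho-STAT3 quantified by Meso Scale assay in lysates of PBMCs exposed to IL-23 (5 ng/mL, 30 min, 37 °C) after 30 min peptide pretreatment. Cells were cryopreserved donor PBMCs activated 4 days with anti-CD3 plus IL-1β (100 ng/mL) and starved ~4 h; IC50 reported.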

IL-23R = molecular target: T1, IL-23R (Homo sapiens, UniProt Q5VWK5); assay: IL23R Reporter Assay; type: cell-based; conditions: HEK293 cells containing IL-23R, IL-12Rβ1 and STAT-inducible firefly luciferase reporter; 10 ng/mL IL-23 (EC90); 5 h
T1 construct: HEK293 cells containing IL-23R, IL-12Rβ1 and a firefly luciferase reporter gene driven by a STAT-inducible promoter (Promega); host or cells: HEK293
T1 sequence (Q5VWK5 24-629): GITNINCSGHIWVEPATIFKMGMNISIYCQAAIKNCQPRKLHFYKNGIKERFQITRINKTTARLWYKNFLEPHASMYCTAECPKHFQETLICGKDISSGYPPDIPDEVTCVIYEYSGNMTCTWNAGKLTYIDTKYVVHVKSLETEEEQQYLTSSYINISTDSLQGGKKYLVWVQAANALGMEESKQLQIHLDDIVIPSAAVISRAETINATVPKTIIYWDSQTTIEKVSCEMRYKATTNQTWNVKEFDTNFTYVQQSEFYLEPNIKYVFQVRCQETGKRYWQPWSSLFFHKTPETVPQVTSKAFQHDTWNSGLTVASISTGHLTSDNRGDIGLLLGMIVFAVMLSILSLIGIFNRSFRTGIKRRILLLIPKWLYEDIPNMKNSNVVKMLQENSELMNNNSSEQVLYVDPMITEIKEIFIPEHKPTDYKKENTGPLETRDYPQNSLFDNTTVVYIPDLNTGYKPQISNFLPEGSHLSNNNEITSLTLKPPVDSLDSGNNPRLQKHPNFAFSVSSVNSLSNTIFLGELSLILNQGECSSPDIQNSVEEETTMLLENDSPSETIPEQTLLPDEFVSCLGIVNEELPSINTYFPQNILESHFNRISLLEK
Method in brief: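 IC50 values were fitted with a 4-parameter Hill equation to luciferase signal, scaled between IL-23-only wells (0% inhibition) and 30 μM reference inhibitor (100%). The readout was a STAT-inducible reporter in IL-23R/IL-12Rβ1 HEK293 cells, stimulated with added 10 ng/mL IL-23 (EC90) for 5 h at 37° C and developed with BioGlo.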

| Structure (SMILES) | IC50 (IL-23R) [nM] | IC50 [1] [nM] |
| --- | --- | --- |
| CC(=O)NCCCC[C@@H]1NC(=O)[C@H](Cc2c[nH]c3c(C)cccc23)NC(=O)[C@H]([C@@H](C)O)NC(=O)[C@H](CC(N)=O)NC(=O)[C@@H](NC(=O)[C@@H](CCCCNC(=O)CCOCCOCCOCCOCCOCCOCCOCCOCCOCCOCCOCCOCCNC(=O)CC[C@H](NC(=O)CCCCCCCCCCCCCCCCCCC(=O)O)C(=O)O)NC(C)=O)C(C)(C)SSC(C)(C)[C@@H](C(=O)N[C@@H](Cc2ccc(OCCN)cc2)C(=O)N[C@@H](Cc2ccc3ccccc3c2)C(=O)NC2(C(=O)N[C@@H](CCCCNC(C)=O)C(=O)N[C@@H](CC(N)=O)C(=O)N[C@@H](Cc3cccnc3)C(=O)N(C)CC(N)=O)CCOCC2)NC1=O [compound 104, MeCO-k(PEG12gEC20OH)-Pen(3)-N-T-7MeW-K(Ac)-Pen(3)-AEF-2Nal-THP-K(Ac)-N-3Pya-Ser-CONH2] (Ac-[dK]([PEG12-γGlu-C20 diacid])[Pen]NT[Trp(7-Me)]K(Ac)[Pen][AEF][2Nal][Thp]K(Ac)N[3Pal][Sar]-NH2; disulfide 2-7) | < 50 | < 0.5 |
| CC(=O)N(C)CCCC[C@@H]1NC(=O)[C@H](Cc2c[nH]c3c(C)cccc23)NC(=O)[C@H]([C@@H](C)O)NC(=O)[C@H](CC(=O)N(C)C)NC(=O)[C@@H](NC(=O)CCOCCOCC[N+](C)(C)C)C(C)(C)SSC(C)(C)[C@@H](C(=O)N[C@@H](Cc2ccc(OCCOCCOCC[N+](C)(C)C)cc2)C(=O)N[C@@H](Cc2ccc3ccccc3c2)C(=O)NC2(C(=O)N[C@@H](CCCCN(C)C(C)=O)C(=O)N[C@@H](CC(N)=O)C(=O)N[C@@H](Cc3cccnc3)C(=O)N(C)[C@@H](CCCCNC(=O)CCOCCOCCOCCOCCOCCOCCOCCOCCOCCOCCOCCOCCNC(=O)CC[C@H](NC(=O)CCCCCCCCCCCCCCCCC(=O)O)C(=O)O)C(N)=O)CCOCC2)NC1=O [compound 107, cPEG3aCO-Pen(3)-N(N(Me)2)-T-7MeW-K(NMeAc)-Pen(3)-APEG3F-2Nal-THP-K(NMeAc)-N-3Pya-NMeK(PEG12gEC18OH)-CONH2] ({Me3N+(CH2)2O(CH2)2O(CH2)2CO}-[Pen]D(NMe2)T[Trp(7-Me)][Lys(Me)](Ac)[Pen]Y(CH2CH2OCH2CH2OCH2CH2NMe3+)[2Nal][Thp][Lys(Me)](Ac)N[3Pal][NMeK]([PEG12-γGlu-C18 diacid])-NH2; disulfide 1-6) | < 50 | < 0.5 |
| CC(=O)N(C)CCCC[C@@H]1NC(=O)[C@H](Cc2c[nH]c3c(C)cccc23)NC(=O)[C@H]([C@@H](C)O)NC(=O)[C@H](CC(=O)N(C)C)NC(=O)[C@@H](NC(=O)CCOCCOCCOCCOCCOCCOCCOCCOCCOCCOCCOCCOCCNC(=O)CC[C@H](NC(=O)CCCCCCCCCCCCCCCCC(=O)O)C(=O)O)C(C)(C)SSC(C)(C)[C@@H](C(=O)N[C@@H](Cc2ccc(OCCOCCOCC[N+](C)(C)C)cc2)C(=O)N[C@@H](Cc2ccc3ccccc3c2)C(=O)NC2(C(=O)N[C@@H](CCCCN(C)C(C)=O)C(=O)N[C@@H](CC(N)=O)C(=O)N[C@@H](Cc3cccnc3)C(=O)N(C)CC(=O)N(C)C)CCOCC2)NC1=O [compound 108, HOC18gEPEG12CO-Pen(3)-N(N(Me)2)-T-7MeW-K(NMeAc)-Pen(3)-APEG3F-2Nal-THP-K(NMeAc)-N-3Pya-Sar-CON(Me)2] ({C18 diacid-γGlu-PEG12}-[Pen]D(NMe2)T[Trp(7-Me)][Lys(Me)](Ac)[Pen]Y(CH2CH2OCH2CH2OCH2CH2NMe3+)[2Nal][Thp][Lys(Me)](Ac)N[3Pal][Sar]-NMe2; disulfide 1-6) | < 50 | < 0.5 |

More lines, main results first:

| IC50 (IL-23R) [nM] | Structure (SMILES) | IC50 [1] [nM] |
| --- | --- | --- |
| 50 to 500 | CC(=O)[C@H](CCCCNC(=O)CC[C@H](NC(=O)CCCCCCCCCCCCCCCCC(=O)O)C(=O)O)N(C)C(=O)[C@H](Cc1cccnc1)NC(=O)[C@H](CC(N)=O)NC(=O)[C@H](CCC(=O)O)NC(=O)C1(NC(=O)[C@H](Cc2ccc3ccccc3c2)NC(=O)[C@H](Cc2ccc(OCCN)cc2)NC(=O)[C@H]2NC(=O)[C@H](CCN(C)C(=O)OCCOCCOCCOCC[N+](C)(C)C)NC(=O)[C@H](Cc3c[nH]c4c(C)cccc34)NC(=O)[C@H]([C@@H](C)O)NC(=O)[C@H](CC(=O)N(C)C)NC(=O)[C@@H](NC(=O)CCOCCOCCOCCOCC[N+](C)(C)C)C(C)(C)SSC2(C)C)CCOCC1 [compound 106, cPEG5aCO-Pen(3)-N(N(Me)2)-T-7MeW-Dab(NMecPEG5a)-Pen(3)-AEF-2Nal-THP-E-N-3Pya-NMeK(gEC18OH)-CONH2] ({Me3N+CH2CH2(OCH2CH2)4CO}-[Pen]D(NMe2)T[Trp(7-Me)][X6](X7)[Pen][AEF][2Nal][Thp]EN[3Pal]-X8; disulfide 1-6) | 0.5 to 5 |
| < 50 | CC(=O)N(C)CCCC[C@@H]1NC(=O)[C@H](Cc2c[nH]c3c(C)cccc23)NC(=O)[C@H]([C@@H](C)O)NC(=O)[C@H](CC(=O)N(C)C)NC(=O)[C@@H](NC(=O)CCOCCOCCOCCOCCOCCOCCNC(=O)CC[C@H](NC(=O)CCCCCCCCCCCCCCCCC(=O)O)C(=O)O)C(C)(C)SSC(C)(C)[C@@H](C(=O)N[C@@H](Cc2ccc(OCCOCCOCC[N+](C)(C)C)cc2)C(=O)N[C@@H](Cc2ccc3ccccc3c2)C(=O)NC2(C(=O)N[C@@H](CCCCN(C)C(C)=O)C(=O)N[C@@H](CC(N)=O)C(=O)N[C@@H](Cc3cccnc3)C(=O)N(C)CC(=O)N(C)C)CCOCC2)NC1=O [compound 109, HOC18gEPEG6CO-Pen(3)-N(N(Me)2)-T-7MeW-K(NMeAc)-Pen(3)-APEG3F-2Nal-THP-K(NMeAc)-N-3Pya-Sar-CON(Me)2] ({C18 diacid-γGlu-PEG6}-[Pen]D(NMe2)T[Trp(7-Me)][Lys(Me)](Ac)[Pen]Y(CH2CH2OCH2CH2OCH2CH2NMe3+)[2Nal][Thp][Lys(Me)](Ac)N[3Pal][Sar]-NMe2; disulfide 1-6) | < 0.5 |
| 50 to 500 | CC(=O)N(C)CCCC[C@@H]1NC(=O)[C@H](Cc2c[nH]c3c(C)cccc23)NC(=O)[C@H]([C@@H](C)O)NC(=O)[C@H](CC(=O)N(C)C)NC(=O)[C@@H](NC(=O)COCCOCCNC(=O)COCCOCCNC(=O)CC[C@H](NC(=O)CCCCCCCCCCCCCCCCCCC(=O)O)C(=O)O)C(C)(C)SSC(C)(C)[C@@H](C(=O)N[C@@H](Cc2ccc(OCCOCCOCC[N+](C)(C)C)cc2)C(=O)N[C@@H](Cc2ccc3ccccc3c2)C(=O)NC2(C(=O)N[C@@H](CCCCN(C)C(C)=O)C(=O)N[C@@H](CC(N)=O)C(=O)N[C@@H](Cc3cccnc3)C(=O)N(C)CC(=O)N(C)C)CCOCC2)NC1=O [compound 110, HOC20gEPEG2PEG2CO-Pen(3)-N(N(Me)2)-T-7MeW-K(NMeAc)-Pen(3)-APEG3F-2Nal-THP-K(NMeAc)-N-3Pya-Sar-CON(Me)2] ({C20 diacid-γGlu-AEEA-AEEA}-[Pen]D(NMe2)T[Trp(7-Me)][Lys(Me)](Ac)[Pen]Y(CH2CH2OCH2CH2OCH2CH2NMe3+)[2Nal][Thp][Lys(Me)](Ac)N[3Pal][Sar]-NMe2; disulfide 1-6) | < 0.5 |
